Legend:
HCT116-mock-RNA-KO = experiment: Compounds cell killing in HCT116 isogenic pair (CellTiter-Glo, 6 days), mock-KO (MTAP wildtype) cells; format: cell-based; settings: Homo sapiens, HCT-116, 144 h, Cell Titer-Glo, 0-10 μM
From the text: (§1) HCT116 cell line (ATCC, CCL-247) was isolated from the colon of an adult with colon cancer. It has a mutation in codon 13 of the ras proto-oncogene and can be used as a positive control for PCR assays of mutation in this codon. HCT116-MTAP-KO was knocked-out-MTAP-gene based HCT116, and a single clone was passed for this assay. HCT116-mock-RNA-KO was knocked-out-mock-gene based HCT116 with MTAP wildtype genotype. The base medium for HCT116 isogenic pair is RPMI 1640, HEPES (Gibco, 22400105). To make the complete growth medium, add the following components to the base medium: fetal bovine serum to a final concentration of 10% (Gibco, 10099-141C). The cell line was grown in a humidified 5% CO2 atmosphere at 37° C. and regularly tested for the presence of mycoplasma with MycoAlert™ PLUS Mycoplasma Detection Kit (Lonza, LT07-710).
(§2) • Seed HCT116-mock-RNA-KO (4E2/well) or HCT116-MTAP-KO (4E2/well) cells into a 96-well plate (Greiner: 655090), 100 µL/well. • Incubate at 37° C., 5% CO2, overnight. • Add 50 μL fresh growth-medium containing serial dilution of compounds for a final compound concentration of 0-10 μM to each well. • Incubate at 37° C., 5% CO2, 6 days. • The cell viability detected by Cell Titer-Glo (Promega, G7573). Add 70 μL of CellTiter-Glo® reagent in each well. • Incubate at room temperature for 10 minutes to stabilize luminescent signal. • Analyze with Microplate Reader (TECAN, SPARK) and fit IC50 using Prism® 9.

HCT116-MTAP-KO = experiment: Compounds cell killing in HCT116 isogenic pair (CellTiter-Glo, 6 days), MTAP-KO cells; format: cell-based; settings: Homo sapiens, HCT-116, 144 h, Cell Titer-Glo, 0-10 μM
From the text: as §1, §2

SMILES | IC50 (HCT116-mock-RNA-KO) | IC50 (HCT116-MTAP-KO)
NCc1n[nH]c(=O)c2ccc(C3(C(=O)N(Cc4ccc(-c5c(F)cccc5F)cn4)C4CCCc5cccnc54)CC3)cc12 (stereo not drawn) [Example 18, 1-(4-(aminomethyl)-1-oxo-1,2-dihydrophthalazin-6-yl)-N-((5-(2,6-difluorophenyl)pyridin-2-yl)methyl)-N-(5,6,7,8-tetrahydroquinolin-8-yl)cyclopropane-1-carboxamide] | 2220 nM | 35 nM
NCc1n[nH]c(=O)c2ccc(C3(C(=O)N(Cc4ccc(-c5c(F)cccc5F)cn4)[C@@H]4CCCc5cccnc54)CC3)cc12 [Example 19A, (R)-1-(4-(aminomethyl)-1-oxo-1,2-dihydrophthalazin-6-yl)-N-((5-(2,6-difluorophenyl)pyridin-2-yl)methyl)-N-(5,6,7,8-tetrahydroquinolin-8-yl)cyclopropane-1-carboxamide] | 2230 nM | 17 nM
NCc1n[nH]c(=O)c2ccc(C3(C(=O)N(Cc4ccc(-c5c(F)cccc5F)cn4)[C@H]4CCCc5cccnc54)CC3)cc12 [Example 19B, (S)-1-(4-(aminomethyl)-1-oxo-1,2-dihydrophthalazin-6-yl)-N-((5-(2,6-difluorophenyl)pyridin-2-yl)methyl)-N-(5,6,7,8-tetrahydroquinolin-8-yl)cyclopropane-1-carboxamide] | > 10000 nM | 848 nM
NCc1n[nH]c(=O)c2ccc(C3(C(=O)N(Cc4ccc(Oc5ccccc5)cn4)C4CCCc5cccnc54)CC3)cc12 (stereo not drawn) [Example 20, 1-(4-(aminomethyl)-1-oxo-1,2-dihydrophthalazin-6-yl)-N-((5-phenoxypyridin-2-yl)methyl)-N-(5,6,7,8-tetrahydroquinolin-8-yl)cyclopropane-1-carboxamide] | > 1000 nM | 215 nM
NCc1n[nH]c(=O)c2ccc(C3(C(=O)N(Cc4ccc(-c5c(F)cccc5F)cn4)C4CCCc5cccc(F)c54)CC3)cc12 (stereo not drawn) [Example 21, 1-(4-(aminomethyl)-1-oxo-1,2-dihydrophthalazin-6-yl)-N-((5-(2,6-difluorophenyl)pyridin-2-yl)methyl)-N-(8-fluoro-1,2,3,4-tetrahydronaphthalen-1-yl)cyclopropane-1-carboxamide] | 4010 nM | 102 nM
NCc1n[nH]c(=O)c2ccc(C3(C(=O)N(Cc4ccc(Br)cc4F)C4CCCc5cccnc54)CC3)cc12 (stereo not drawn) [Example 22, 1-(4-(aminomethyl)-1-oxo-1,2-dihydrophthalazin-6-yl)-N-(4-bromo-2-fluorobenzyl)-N-(5,6,7,8-tetrahydroquinolin-8-yl)cyclopropane-1-carboxamide] | 7370 nM | 130 nM
Cc1n[nH]c(C)c1-c1ccc(CN(C(=O)C2(c3ccc4c(=O)[nH]nc(CN)c4c3)CC2)C2CCCc3cccnc32)nc1 (stereo not drawn) [Example 23, 1-(4-(aminomethyl)-1-oxo-1,2-dihydrophthalazin-6-yl)-N-((5-(3,5-dimethyl-1H-pyrazol-4-yl)pyridin-2-yl)methyl)-N-(5,6,7,8-tetrahydroquinolin-8-yl)cyclopropane-1-carboxamide] | > 10000 nM | 3990 nM
NCc1n[nH]c(=O)c2ccc(C3(C(=O)N(Cc4ccc(-c5c(F)cccc5F)cn4)C4CCC4)CC3)cc12 [Example 25, 1-(4-(aminomethyl)-1-oxo-1,2-dihydrophthalazin-6-yl)-N-cyclobutyl-N-((5-(2,6-difluorophenyl)pyridin-2-yl)methyl)cyclopropane-1-carboxamide] | > 10000 nM | 3690 nM
NCc1n[nH]c(=O)c2ccc(C3(C(=O)N(Cc4ccc(-c5c(F)cccc5Cl)cn4)C4CCCc5cccnc54)CC3)cc12 (stereo not drawn) [Example 26, 1-(4-(aminomethyl)-1-oxo-1,2-dihydrophthalazin-6-yl)-N-((5-(2-chloro-6-fluorophenyl)pyridin-2-yl)methyl)-N-(5,6,7,8-tetrahydroquinolin-8-yl)cyclopropane-1-carboxamide] | 2780 nM | 77 nM
NCc1n[nH]c(=O)c2ccc(C3(C(=O)N(Cc4ccc5c(Br)cccc5n4)C4CCCc5cccnc54)CC3)cc12 (stereo not drawn) [Example 27, 1-(4-(aminomethyl)-1-oxo-1,2-dihydrophthalazin-6-yl)-N-((5-bromoquinolin-2-yl)methyl)-N-(5,6,7,8-tetrahydroquinolin-8-yl)cyclopropane-1-carboxamide] | 7290 nM | 415 nM
N#Cc1cccc(F)c1-c1ccc(CN(C(=O)C2(c3ccc4c(=O)[nH]nc(CN)c4c3)CC2)C2CCCc3cccnc32)nc1 (stereo not drawn) [Example 28, 1-(4-(aminomethyl)-1-oxo-1,2-dihydrophthalazin-6-yl)-N-((5-(2-cyano-6-fluorophenyl)pyridin-2-yl)methyl)-N-(5,6,7,8-tetrahydroquinolin-8-yl)cyclopropane-1-carboxamide] | 3210 nM | 102 nM
CC(c1ncccn1)N(Cc1ccc(C(F)(F)F)cn1)C(=O)C1(c2ccc3c(=O)[nH]nc(CN)c3c2)CC1 (stereo not drawn) [Example 29, 1-(4-(aminomethyl)-1-oxo-1,2-dihydrophthalazin-6-yl)-N-(1-(pyrimidin-2-yl)ethyl)-N-((5-(trifluoromethyl)pyridin-2-yl)methyl)cyclopropane-1-carboxamide] | > 10000 nM | 1440 nM
COCC(COC)N(Cc1ccc(-c2c(F)cccc2F)cn1)C(=O)C1(c2ccc3c(=O)[nH]nc(CN)c3c2)CC1 [Example 30, 1-(4-(aminomethyl)-1-oxo-1,2-dihydrophthalazin-6-yl)-N-((5-(2,6-difluorophenyl)pyridin-2-yl)methyl)-N-(1,3-dimethoxypropan-2-yl)cyclopropane-1-carboxamide] | > 10000 nM | 254 nM
NCc1n[nH]c(=O)c2ccc(C3(C(=O)N(Cc4ccc(S(F)(F)(F)(F)F)cc4)[C@@H]4CCCc5cccnc54)CC3)cc12 [Example 31, (R)-1-(4-(aminomethyl)-1-oxo-1,2-dihydrophthalazin-6-yl)-N-(4-(pentafluoro-λ^6-sulfanyl)benzyl)-N-(5,6,7,8-tetrahydroquinolin-8-yl)cyclopropane-1-carboxamide] | 3150 nM | 18 nM
NCc1n[nH]c(=O)c2ccc(C3(C(=O)N(Cc4ccc(C(F)(F)F)cn4)C4CCCc5c(C6CC6)ccnc54)CC3)cc12 (stereo not drawn) [Example 32, 1-(4-(aminomethyl)-1-oxo-1,2-dihydrophthalazin-6-yl)-N-(4-cyclopropyl-5,6,7,8-tetrahydroquinolin-8-yl)-N-((5-(trifluoromethyl)pyridin-2-yl)methyl)cyclopropane-1-carboxamide] | 7330 nM | 140 nM
NCc1n[nH]c(=O)c2ccc(C3(C(=O)N(Cc4ccc(-c5c(F)cccc5F)cn4)C4CCc5cccnc54)CC3)cc12 (stereo not drawn) [Example 33, 1-(4-(aminomethyl)-1-oxo-1,2-dihydrophthalazin-6-yl)-N-((5-(2,6-difluorophenyl)pyridin-2-yl)methyl)-N-(6,7-dihydro-5H-cyclopenta[b]pyridin-7-yl)cyclopropane-1-carboxamide] | 9800 nM | 150 nM
NCc1n[nH]c(=O)c2ccc(C3(C(=O)N(Cc4ccc(Oc5c(F)cccc5F)cn4)[C@@H]4CCCc5cccnc54)CC3)cc12 [Example 34, (R)-1-(4-(aminomethyl)-1-oxo-1,2-dihydrophthalazin-6-yl)-N-((5-(2,6-difluorophenoxy)pyridin-2-yl)methyl)-N-(5,6,7,8-tetrahydroquinolin-8-yl)cyclopropane-1-carboxamide] | 3650 nM | 66 nM
NCc1n[nH]c(=O)c2ccc(C3(C(=O)N(Cc4ccc(C(F)(F)F)cn4)C4CCCc5cccnc54)CCC3)cc12 (stereo not drawn) [Example 35, 1-(4-(aminomethyl)-1-oxo-1,2-dihydrophthalazin-6-yl)-N-(5,6,7,8-tetrahydroquinolin-8-yl)-N-((5-(trifluoromethyl)pyridin-2-yl)methyl)cyclobutane-1-carboxamide] | > 10000 nM | 924 nM

Source: patent US20260226029A1, “1-(1-Oxo-1,2-Dihydrophthalazin-6-yl)Cycloalkyl-1-Carboxamide Derivatives as MTA-Cooperative Inhibitors of PRMT5” (BeOne Medicines I GmbH, priority 2023, published 2026)
